Data set [1] in a line: LD50 acute toxicity, ddy mice, single abdominal injection. The conditions noted are these: mouse, in vivo, ip, 5 ddy mice, 14 days observation, Behrens-Koerber's method. The source says:
(§1) As used herein, the term "LD50 " denotes the acute toxicity. The term "ED50 " denotes the administered amount needed for reducing the volume of Sarcoma 180 solid tumours in animals to 50% of the corresponding tumour volume in control (untreated) animals. The term "WBC4000 " denotes the minimum dose of the drug needed to reduce the number of peripheral leucocytes to 4000/mm^3. A greater TI value results in a broader tolerance to the drug, which is advantageous for higher anti-tumour activity and decreased toxicity. The term "T" used herein denotes the average survival days of the test animals administered with the test compound. The term "C" denotes the average survival days of the control (untreated) animals. The term "OPD" denotes the dose of the drug resulting in the highest survival ratio. The term "ILS30 " denotes a 30% increase of life-span.
LD50, ED50 and WBC4000 were respectively determined as follows:
Each animal of the test group, consisting of 5 ddy mice, was administered once with a test compound by abdominal injection. […] To determine the LD50 value, Behrens-Koerber's method was applied.

A further data set relates to Sarcoma 180 solid tumour. Nature of the data set: ED50 against Sarcoma 180 solid tumour implanted in mice. It counts as in vivo, male mouse (ddy strain). The conditions noted are these: for (CI)c: (CI of test compound)/(CI of mitomycin C), CI = LD50/ED50; for ED50: Mus musculus, Sarcoma-180, iv, 168 h, i.v. (tail vein) 24 h after implantation, tumour volume at 7 days, dose for T/C of 0.5.
Source text: With regard to the so-called chemotherapeutic index viz. the CI value against sarcoma 180 solid tumour, expressed by the formula: […]
as §1
the term (CI)c denotes (CI of the test compound)/(CI of mitomycin C), and
5×10^6 sarcoma 180 solid tumor cells were abdominally implanted into ddy mice. 7 days after this, ascites cells were sampled. The cells were washed once with a sterilized physiological saline and were used to prepare a cell suspension containing 5×10^7 cells per ml of a sterilized physiological saline. On each occasion, 0.1 ml of the cell suspension was subcutaneously implanted under the skin of the right armpit of a male mouse (ddy strain; body weight 20±2 g). The test compound which was dissolved in a physiological saline with or without addition of Tween 80 was injected into the tail vein of each animal of a group consisting of 5 mice at a dose of 0.1-0.2 ml 24 hours after the implantation of the tumor cells.
The anti-tumor activity was determined in the following manner:
7 days after the implantation, the major axis (a) and the minor axis (b) of the tumour were measured to calculate a value of (a×b^2)/2 which corresponds to the volume of the tumour. The antitumour activity was expressed by the ratio of the volume of the tumour (T) of the group of animals administered with the test compound to the corresponding volume of tumours (C) of the untreated animals.
On graph paper, T/C was plotted on the ordinate using an arithmetic scale and the administered amount of test compound was plotted on the abscissa using a logarithmic scale. The relationship between the dose and T/C was shown by a straight line determined by the method of least squares, from which ED50 viz. a dose corresponding to T/C of 0.5 was obtained.

Data set [2] concerns lymphocytic Leukemia P-388. Nature of the data set: Anti-tumour activity against lymphocytic Leukemia P-388 in mice. In kind it is in vivo, mouse, female of CDF strain.
Source text: Also, their therapeutic indexes, expressed by the formula:
TI=(OPD)/(dose which results in ILS30),
against lymphocytic Leukemia P-388 and the maximum increased life spans (ILSmax), defined by the formula: […]
as §1
The experiment was carried out in the following manner. 1×10^6 lymphocytic Leukemia P-388 tumour cells were abdominally implanted into each mouse of a group consisting of 5 mice (body weight about 22 g; female of CDF strain). 24 hours after implantation, a physiological saline solution (0.2 ml) containing the test compound with or without addition of Tween 80 was abdominally given to the test animal.
Table 7 indicates anti-tumour activities of selected Compounds (I) against lyphocytic Leukemia P-388.

The text below walks through data of patent publication US4863935A, “Mitomycin compounds having useful anti-tumor activity” (priority 1986, dated 1989).

One may read the LD50 as the dose expected to kill half of the subjects tested. For orientation: ED50 means the dose that gives a 50% effect, or the effect in half of the subjects. Read a low ED50 as an effect at a small dose. Molecule `CO[C@@]12[C@H](COC(N)=O)C3=C(C(=O)C(C)=C(NCCSCOC(=O)NCCC(=O)OC(C)(C)C)C3=O)N1C[C@@H]1N[C@@H]12` [Compound 2, 7-N--[2-(2-t-butoxycarbonylethyl)aminocarbonyloxymethylthioethyl]mitomycin C] registered an LD50 at 336 h in data set [1] of 45 mg/kg. In the data set with Sarcoma 180 solid tumour, the “(CI)c” value was 1.44 and it took a dose of 11.2 mg/kg to reach the 50% effect level (ED50).

With `CO[C@@]12[C@H](COC(N)=O)C3=C(C(=O)C(C)=C(NCCSC(=O)NCCC(=O)OCc4ccccc4)C3=O)N1C[C@@H]1N[C@@H]12` [Compound 3, 7-N--[2-(2-benzyloxycarbonylethyl)aminocarbonylthioethyl]mitomycin C], in data set [1], the LD50 at 336 h is greater than 100 mg/kg. Besides, in the data set on Sarcoma 180 solid tumour, the “(CI)c” value is on record as greater than 0.89 and the 50% effective dose (ED50) is 39.6 mg/kg.

In data set [1], `CO[C@@]12[C@H](COC(N)=O)C3=C(C(=O)C(C)=C(NCCSC(=O)N(C)C)C3=O)N1C[C@@H]1N[C@@H]12` [Compound 8, 7-N--(2-dimethylaminocarbonylthioethyl)mitomycin C] came in with an LD50 at 336 h of 26.3 mg/kg. In addition, in the data set on Sarcoma 180 solid tumour, the “(CI)c” value was found to be 0.65 and it took a dose of 14.4 mg/kg to reach the 50% effect level (ED50).

With `CO[C@@]12[C@H](COC(N)=O)C3=C(C(=O)C(C)=C(NCCSC(=O)NC(CC(=O)OCc4ccccc4)c4ccccc4)C3=O)N1C[C@@H]1N[C@@H]12` (stereo partly shown) [Compound 10, 7-N--[2-(1-phenyl-2-benzyloxycarbonylethyl)aminocarbonylthioethyl]mitomycin C], the LD50 at 336 h in data set [1] is greater than 100 mg/kg. Further, in the data set with Sarcoma 180 solid tumour, the “(CI)c” value is given as greater than 0.43 and the 50% effect level (ED50) was put at a dose of 95.5 mg/kg.

The molecule `CO[C@@]12[C@H](COC(N)=O)C3=C(C(=O)C(C)=C(NCCSC(=O)N4CCC[C@H]4C(=O)OCc4ccccc4)C3=O)N1C[C@@H]1N[C@@H]12` [Compound 16, 7-N--[2-((S)--2-benzyloxycarbonylpyrrolidino)-carbonylthioethyl]mitomycin C] returned an LD50 at 336 h in data set [1] greater than 100 mg/kg. Moreover, in the data set with Sarcoma 180 solid tumour, the “(CI)c” value was greater than 0.45 and it took a dose of 84.4 mg/kg to reach the 50% effect level (ED50).

In data set [1], `CNC(=O)[C@@H]1CCCN1C(=O)SCCNC1=C(C)C(=O)C2=C(C1=O)[C@@H](COC(N)=O)[C@@]1(OC)[C@H]3N[C@H]3CN21` [Compound 17, 7-N--[2-((S)--2-methylaminocarbonylpyrrolidino)-carbonylthioethyl]mitomycin C] displayed an LD50 at 336 h of 75 mg/kg. Further, in the data set with Sarcoma 180 solid tumour, the “(CI)c” value stood at 1.32 and the 50% effective dose (ED50) is 21.7 mg/kg.

The molecule `CO[C@@]12[C@H](COC(N)=O)C3=C(C(=O)C(C)=C(NCCSC(=O)N4CCC[C@H]4C(=O)N(C)C)C3=O)N1C[C@@H]1N[C@@H]12` [Compound 18, 7-N--[2-((S)--2-dimethylaminocarbonylpyrrolidino)carbonylthioethyl]mitomycin C] had a 50% lethal dose (LD50) at 336 h in data set [1] of 97.5 mg/kg. Besides, in the data set on Sarcoma 180 solid tumour, the “(CI)c” value was determined as 3.02 and the ED50 turned out to be 12.3 mg/kg.

Molecule `CO[C@@]12[C@H](COC(N)=O)C3=C(C(=O)C(C)=C(NCCSC(=O)N4CCC[C@H]4C(N)=O)C3=O)N1C[C@@H]1N[C@@H]12` [Compound 19, 7-N--[2-((S)--2-carbamoylpyrrolidino)carbonylthioethyl]mitomycin C] came in with an LD50 at 336 h in data set [1] of 75 mg/kg. In addition, in the data set with Sarcoma 180 solid tumour, the “(CI)c” value is 1.46 and the ED50 was 19.6 mg/kg.

As to `CO[C@@]12[C@H](COC(N)=O)C3=C(C(=O)C(C)=C(NCCSC(=O)N4CCCC4)C3=O)N1C[C@@H]1N[C@@H]12` [Compound 21, 7-N--(2-pyrrolidinocarbonylthioethyl)mitomycin C], the LD50 at 336 h in data set [1] was 37.5 mg/kg. In the data set on Sarcoma 180 solid tumour, the “(CI)c” value is recorded as 1.44 and the 50% effect level (ED50) was put at a dose of 8.4 mg/kg.

In data set [1], `CNC(=S)SCCNC1=C(C)C(=O)C2=C(C1=O)[C@@H](COC(N)=O)[C@@]1(OC)[C@H]3N[C@H]3CN21` [Compound 25, 7-N--(2-methylaminothiocarbonylthioethyl)mitomycin C] registered an LD50 at 336 h of 52.5 mg/kg. Besides, in the data set with Sarcoma 180 solid tumour, the “(CI)c” value was determined as 1.96 and the ED50 was found to be 10.5 mg/kg.

As to `CCCCNC(=O)SCCNC1=C(C)C(=O)C2=C(C1=O)[C@@H](COC(N)=O)[C@@]1(OC)[C@H]3N[C@H]3CN21` [Compound 28, 7-N--(2-n-butylaminocarbonylthioethyl)mitomycin C], in data set [1], the LD50 at 336 h came out at 43.8 mg/kg. In addition, in the data set on Sarcoma 180 solid tumour, the “(CI)c” value came to 1.73 and it took a dose of 9.9 mg/kg to reach the 50% effect level (ED50).

`CO[C@@]12[C@H](COC(N)=O)C3=C(C(=O)C(C)=C(NCCSC(=O)N4CCOCC4)C3=O)N1C[C@@H]1N[C@@H]12` [Compound 33, 7-N--(2-morpholinocarbonylthioethyl)mitomycin C] returned an LD50 at 336 h in data set [1] of 52.5 mg/kg. Further, in the data set on Sarcoma 180 solid tumour, the “(CI)c” value amounted to 1.23 and the median effective dose (ED50) stood at 17.8 mg/kg.

In the case of `CO[C@@]12[C@H](COC(N)=O)C3=C(C(=O)C(C)=C(NCCSC(=O)NC(C)(C)C(=O)OC(C)(C)C)C3=O)N1C[C@@H]1N[C@@H]12` [Compound 34, 7-N--[2-(1-methyl-1-t-butoxycarbonylethyl)-aminocarbonylthioethyl]mitomycin C], the LD50 at 336 h in data set [1] was determined as 37.5 mg/kg. Also, in the data set on Sarcoma 180 solid tumour, the “(CI)c” value is recorded as 1.14 and the ED50 came to 13.7 mg/kg.

Turning to `CO[C@@]12[C@H](COC(N)=O)C3=C(C(=O)C(C)=C(NCCSC(=O)N(C)NC=O)C3=O)N1C[C@@H]1N[C@@H]12` [Compound 35, 7-N--[2-(1-methyl-2-formylhydrazino)carbonylthioethyl]mitomycin C], in data set [1], the LD50 at 336 h was 105 mg/kg. Also, in the data set on Sarcoma 180 solid tumour, the “(CI)c” value was determined as 1.30 and the ED50 worked out at 27.9 mg/kg.

Regarding `CO[C@@]12[C@H](COC(N)=O)C3=C(C(=O)C(C)=C(NCCSC(=S)NC4CCCCC4)C3=O)N1C[C@@H]1N[C@@H]12` [Compound 37, 7-N--(2-cyclohexylaminothiocarbonylthioethyl)mitomycin C], the median lethal dose (LD50) at 336 h in data set [1] was 41.3 mg/kg. Also, in the data set with Sarcoma 180 solid tumour, the “(CI)c” value came to 0.73 and it took a dose of 23.5 mg/kg to reach the 50% effect level (ED50).

In data set [1], `CC1=C(NCCSC(=S)NC2CCCCC2)C(=O)C2=C(C1=O)N1C[C@H]3[C@H](N3C)[C@]1(O)[C@H]2COC(N)=O` (stereo partly shown) [Compound 38, 7-N--(2-cyclohexylaminothiocarbonylthioethyl)mitomycin D] yielded a median lethal dose (LD50) at 336 h of 75 mg/kg. For the same molecule, in the data set on Sarcoma 180 solid tumour, the “(CI)c” value is 0.79 and the 50% effect level (ED50) was put at a dose of 39.5 mg/kg.

`CCCNC(=S)SCCNC1=C(C)C(=O)C2=C(C1=O)[C@@H](COC(N)=O)[C@@]1(OC)[C@H]3N[C@H]3CN21` [Compound 40, 7-N--(2-n-propylaminothiocarbonylthioethyl)mitomycin C] gave a median lethal dose (LD50) at 336 h in data set [1] greater than 25 mg/kg. Further, in the data set with Sarcoma 180 solid tumour, the “(CI)c” value is recorded as greater than 1.03 and the ED50 is 10.1 mg/kg.

For the molecule `CO[C@@]12[C@H](COC(N)=O)C3=C(C(=O)C(C)=C(NCCSC(=O)N4CCC(Cc5ccccc5)CC4)C3=O)N1C[C@@H]1N[C@@H]12` [Compound 41, 7-N--[2-(4-benzylpiperidino)carbonylthioethyl]mitomycin C], the median lethal dose (LD50) at 336 h in data set [1] stood at 41.3 mg/kg. Besides, in the data set with Sarcoma 180 solid tumour, the “(CI)c” value turned out to be 1.37 and the ED50 was 13.7 mg/kg.

The molecule `CO[C@@]12[C@H](COC(N)=O)C3=C(C(=O)C(C)=C(NCCSC(=O)N4CCCCC4)C3=O)N1C[C@@H]1N[C@@H]12` [Compound 42, 7-N--(2-piperidinocarbonylthioethyl)mitomycin C] came in with a median lethal dose (LD50) at 336 h in data set [1] of 33.8 mg/kg. Moreover, in the data set on Sarcoma 180 solid tumour, the “(CI)c” value is 1.14 and the ED50 worked out at 9.34 mg/kg.

Regarding `CO[C@@]12[C@H](COC(N)=O)C3=C(C(=O)C(C)=C(NCCSC(=S)NC(c4ccccc4)c4ccccc4)C3=O)N1C[C@@H]1N[C@@H]12` [Compound 50], in data set [2] ((ILSmax of test compound)/(ILSmax of mitomycin C), ILS=(T-C)/C×100), the “(ILSmax)c” value is given as greater than 2.39. The “(TI)c” value in data set [2] ((TI of test compound)/(TI of mitomycin C), TI = OPD/dose which results in ILS30) is reported as 1.10. Further, the ED (optimal dose, highest survival) in data set [2] (Mus musculus, P388, ip, dose resulting in the highest survival ratio, i.p. 24 h after implantation, 30 days, read-out: OPD) was 12.5 mg/kg. The ED (30% increase of life-span) in data set [2] (Mus musculus, P388, ip, 30% increase of life-span, i.p. 24 h after implantation, read-out: Dose needed to give ILS30) stood at 0.74 mg/kg.
